Measured values taken from patent publication US20250340538A1, “IMIDAZOLONE DERIVATIVES AS INHIBITORS OF PROTEIN KINASES IN PARTICULAR DYRK1A, CLK1 AND/OR CLK4” (PERHA PHARMACEUTICALS, priority 2021, published 2025).
Where a name gives a salt, the structure may show the parent alone.

Tests used:
CLK1 = target: T1, CLK1 (Homo sapiens, UniProt P49759); assay: Radiometric protein kinase assay (33PanQinase Activity Assay), CLK1; assay type: biochemical; settings: class by IC50 on CLK1, from dose-response curves; read-out: Potency Class CLK1
T1 construct: GST-fusion or His-tag (not specified per kinase); purchased ProQinase GmbH; host or cells: Sf9 insect cells or E. coli (not specified per kinase)
Method: Assays were performed by ProQinase GmbH (Engesserstr. 4, D-79108 Freiburg, Germany. www.proqinase.com). The IC50 profile of all compounds was determined using 12 protein kinases (CDK2/cyclin E, CK1ε, CLK1, 2, 3, 4, DYRK1A, 1B, 2, 3, 4, GSK3β).
(§1) The compounds were provided as […] in 100% DMSO. Prior to testing, the 1 μM stock solutions were subjected to a serial, semi-logarithmic dilution using 100% DMSO as a solvent. […] In the process, 90 μl H2O were added to each well of each compound dilution plate. To minimize potential precipitation, the H2O was added to each plate only a few minutes before the transfer of the compound solutions into the assay plates. The plate was shaken thoroughly, resulting in a compound dilution plate/10% DMSO.
(§2) For the assays (see below), 5 μL solution from each well of the compound dilution plates/10% DMSO were transferred into the assay plates. The final volume of the assay was 50 μL. All compounds were tested at 10 final assay concentrations in the range from 10 μM to 30 nM. The final DMSO concentration in the reaction cocktails was 1% in all cases.
(§3) All protein kinases provided by ProQinase were expressed in Sf9 insect cells or in E. coli as recombinant GST-fusion proteins or His-tagged proteins, either as full-length or enzymatically active fragments. All kinases were produced from human cDNAs and purified by either GSH-affinity chromatography or immobilized metal. Affinity tags were removed from a number of kinases during purification. The purity of the protein kinases was examined by SDS-PAGE/Coomassie staining, the identity was checked by mass spectroscopy.
(§4) A radiometric protein kinase assay (33PanQinase® Activity Assay) was used for measuring the kinase activity of the 12 protein kinases. All kinase assays were performed in 96-well FlashPlates™ from PerkinElmer (Boston, MA, USA) in a 50 μL reaction volume. The reaction cocktail was pipetted in four steps in the following order: • 25 μL of assay buffer (standard buffer/[γ-^33P]-ATP), • 10 μL of ATP solution (in H2O), • 5 μL of test compound (in 10% DMSO), • 10 μL of enzyme/substrate mixture.
(§5) The reaction cocktails were incubated at 30° C. for 60 minutes. The reaction was stopped with 50 μL of 2% (v/v) H3PO4, plates were aspirated and washed two times with 200 μL 0.9% (w/v) NaCl. Incorporation of ^33Pi was determined with a microplate scintillation counter (Microbeta, Wallac). The IC50 values for all compounds were calculated from the dose response curves
As a parameter for assay quality, the Z′-factor (Zhang et al., J. Biomol. Screen. 2: 67-73, 1999) for the low and high controls of each assay plate (n=8) was used. ProQinase's criterion for repetition of an assay plate is a Z′-factor below 0.4 (Iversen et al., J. Biomol. Screen. 3: 247-252, 2006).

DYRK1A = target: T2, DYRK1A (Homo sapiens, UniProt Q13627); assay: Radiometric protein kinase assay (33PanQinase Activity Assay), DYRK1A; assay type: biochemical; settings: for IC50: class by IC50 on DYRK1A, from dose-response curves, read-out: Potency Class DYRK1A; for Selectivity Class DYRK1A vs. CLK1: ratio of IC50 on CLK1 over IC50 on DYRK1A; for Selectivity Class DYRK1A vs. DYRK1B: ratio of IC50 on DYRK1B over IC50 on DYRK1A
T2 construct: GST-fusion or His-tag (not specified per kinase); purchased ProQinase GmbH; host or cells: Sf9 insect cells or E. coli (not specified per kinase)
Method: The IC50 profile of all compounds was determined using 12 protein kinases (CDK2/cyclin E, CK1ε, CLK1, 2, 3, 4, DYRK1A, 1B, 2, 3, 4, GSK3β).
as §1, §2, §3, §4, §5

T1 sequence (P49759 whole entry, the tested form may be a part): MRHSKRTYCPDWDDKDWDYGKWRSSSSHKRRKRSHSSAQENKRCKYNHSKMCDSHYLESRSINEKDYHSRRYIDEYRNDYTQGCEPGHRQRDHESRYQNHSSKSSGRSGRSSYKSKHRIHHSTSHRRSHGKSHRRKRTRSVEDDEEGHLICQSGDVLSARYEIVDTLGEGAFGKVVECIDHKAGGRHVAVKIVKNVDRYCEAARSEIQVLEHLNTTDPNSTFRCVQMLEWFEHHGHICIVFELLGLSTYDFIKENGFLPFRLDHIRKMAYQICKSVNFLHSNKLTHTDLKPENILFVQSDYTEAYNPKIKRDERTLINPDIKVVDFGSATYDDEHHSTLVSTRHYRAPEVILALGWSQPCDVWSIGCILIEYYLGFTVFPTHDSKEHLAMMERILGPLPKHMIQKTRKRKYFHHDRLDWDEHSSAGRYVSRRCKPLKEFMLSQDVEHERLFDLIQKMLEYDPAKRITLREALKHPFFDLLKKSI

Row | Compound | IC50 (CLK1) [nM] | IC50 (DYRK1A) [nM] | Selectivity Class DYRK1A vs. CLK1 (DYRK1A) | Selectivity Class DYRK1A vs. DYRK1B (DYRK1A)
1 | CN1CCN(c2ccc(NC3=N/C(=C\c4ccc5nccnc5c4)C(=O)N3)cc2)CC1 [Compound 33, (4Z)-2-[4-(4-Methylpiperazin-1-yl)anilino]-4-(quinoxalin-6-ylmethylene)-1H-imidazol-5-one] | > 50 | 25 to 50 | II (ratio between 2 and 10 fold) | II (ratio between 2 and 10 fold)
2 | Cn1ccc(NC2=N/C(=C\c3ccc4nccnc4c3)C(=O)N2)n1 [Compound 34, (4Z)-2-[(1-methylpyrazol-3-yl)amino]-4-(quinoxalin-6-ylmethylene)-1H-imidazol-5-one] | > 50 | > 50 | III (ratio between 0.5 and 2 fold) | II (ratio between 2 and 10 fold)
3 | O=C1NC(Nc2ccccn2)=N/C1=C\c1ccc2nccnc2c1 [Compound 35, (4Z)-2-(2-pyridylamino)-4-(quinoxalin-6-ylmethylene)-1H-imidazol-5-one] | > 50 | > 50 | II (ratio between 2 and 10 fold) | II (ratio between 2 and 10 fold)
4 | O=C1NC(N[C@@H]2CCOC2)=N/C1=C\c1ccc2nccnc2c1 [Compound 37, (4Z)-4-(quinoxalin-6-ylmethylene)-2-[[(3R)-tetrahydrofuran-3-yl]amino]-1H-imidazol-5-one] | > 50 | > 50 | III (ratio between 0.5 and 2 fold) | II (ratio between 2 and 10 fold)
5 | O=C1NC(N[C@H]2CCCOC2)=N/C1=C\c1ccc2nccnc2c1 [Compound 38, (4Z)-4-(quinoxalin-6-ylmethylene)-2-[[(3S)-tetrahydropyran-3-yl]amino]-1H-imidazol-5-one] | > 50 | > 50 | III (ratio between 0.5 and 2 fold) | II (ratio between 2 and 10 fold)
6 | O=C1NC(N[C@@H]2CCCOC2)=N/C1=C\c1ccc2nccnc2c1 [Compound 39, (4Z)-4-(quinoxalin-6-ylmethylene)-2-[[(3R)-tetrahydropyran-3-yl]amino]-1H-imidazol-5-one] | > 50 | 25 to 50 | III (ratio between 0.5 and 2 fold) | II (ratio between 2 and 10 fold)
7 | O=C1NC(N[C@@H]2COCC[C@H]2O)=N/C1=C\c1ccc2nccnc2c1 [Compound 40, (4Z)-2-[[(3R,4R)-4-Hydroxytetrahydropyran-3-yl]amino]-4-(quinoxalin-6-ylmethylene)-1H-imidazol-5-one] | > 50 | > 50 | III (ratio between 0.5 and 2 fold) | II (ratio between 2 and 10 fold)
8 | O=C1NC(NC2COCCOC2)=N/C1=C\c1ccc2nccnc2c1 [Compound 42, (4Z)-2-(1,4-dioxepan-6-ylamino)-4-(quinoxalin-6-ylmethylene)-1H-imidazol-5-one] | > 50 | > 50 | III (ratio between 0.5 and 2 fold) | II (ratio between 2 and 10 fold)
9 | O=C1NC(NC2CCCCC2)=N/C1=C\c1ccc2ncccc2c1 [Compound 43, (4Z)-2-(Cyclohexylamino)-4-(6-quinolylmethylene)-1H-imidazol-5-one] | > 50 | > 50 | III (ratio between 0.5 and 2 fold) | II (ratio between 2 and 10 fold)

Further lines, results first:

Row | IC50 (CLK1) [nM] | IC50 (DYRK1A) [nM] | Selectivity Class DYRK1A vs. CLK1 (DYRK1A) | Selectivity Class DYRK1A vs. DYRK1B (DYRK1A) | Compound
10 | > 50 | > 50 | III (ratio between 0.5 and 2 fold) | II (ratio between 2 and 10 fold) | O=C1NC(NCc2ccccc2C(F)(F)F)=N/C1=C\c1ccc2nccnc2c1 [Compound 22, (4Z)-4-(quinoxalin-6-ylmethylene)-2-[[2-(trifluoromethyl)phenyl]methylamino]-1H-imidazol-5-one]
11 | > 50 | 10 to 25 | II (ratio between 2 and 10 fold) | II (ratio between 2 and 10 fold) | O=C1NC(N[C@H]2c3ccccc3C[C@@H]2O)=N/C1=C\c1ccc2nccnc2c1 [Compound 23, (4Z)-2-[[(1S,2S)-2-hydroxyindan-1-yl]amino]-4-(quinoxalin-6-ylmethylene)-1H-imidazol-5-one]
12 | > 50 | > 50 | III (ratio between 0.5 and 2 fold) | II (ratio between 2 and 10 fold) | COC[C@H](NC1=N/C(=C\c2ccc3nccnc3c2)C(=O)N1)c1ccccc1 [Compound 26, (4Z)-2-[[(1R)-2-methoxy-1-phenyl-ethyl]amino]-4-(quinoxalin-6-ylmethylene)-1H-imidazol-5-one]
13 | > 50 | > 50 | III (ratio between 0.5 and 2 fold) | II (ratio between 2 and 10 fold) | O=C1NC(NC[C@H](O)c2ccccc2)=N/C1=C\c1ccc2nccnc2c1 [Compound 27, (4Z)-2-[[(2R)-2-hydroxy-2-phenyl-ethyl]amino]-4-(quinoxalin-6-ylmethylene)-1H-imidazol-5-one]
14 | 25 to 50 | 25 to 50 | III (ratio between 0.5 and 2 fold) | II (ratio between 2 and 10 fold) | NC[C@H](NC1=N/C(=C\c2ccc3nccnc3c2)C(=O)N1)c1ccccc1 [Compound 28, (4Z)-2-[[(1R)-2-amino-1-phenyl-ethyl]amino]-4-(quinoxalin-6-ylmethylene)-1H-imidazol-5-one dihydrochloride]
15 | > 50 | 25 to 50 | III (ratio between 0.5 and 2 fold) | II (ratio between 2 and 10 fold) | NC[C@@H](NC1=N/C(=C\c2ccc3nccnc3c2)C(=O)N1)c1ccccc1 [Compound 29, (4Z)-2-[[(1S)-2-Amino-1-phenyl-ethyl]amino]-4-(quinoxalin-6-ylmethylene)-1H-imidazol-5-one dihydrochloride]
16 | > 50 | > 50 | IV (ratio between 0.1 and 0.5 fold) | II (ratio between 2 and 10 fold) | Cc1cnc(CNC2=N/C(=C\c3ccc4nccnc4c3)C(=O)N2)cn1 [Compound 30, (4Z)-2-[(5-methylpyrazin-2-yl)methylamino]-4-(quinoxalin-6-ylmethylene)-1H-imidazol-5-one]
17 | > 50 | > 50 | III (ratio between 0.5 and 2 fold) | III (ratio between 0.5 and 2 fold) | Cc1csc(CNC2=N/C(=C\c3ccc4nccnc4c3)C(=O)N2)n1 [Compound 31, (4Z)-2-[(4-methylthiazol-2-yl)methylamino]-4-(quinoxalin-6-ylmethylene)-1H-imidazol-5-one]
18 | > 50 | > 50 | III (ratio between 0.5 and 2 fold) | II (ratio between 2 and 10 fold) | O=C1NC(NCC2CCOCC2)=N/C1=C\c1ccc2nccnc2c1 [Compound 32, (4Z)-4-(quinoxalin-6-ylmethylene)-2-(tetrahydropyran-4-ylmethylamino)-1H-imidazol-5-one]
